ChEMBL document CHEMBL5579867, “Ligand-Based Pharmacophoric Design and Anti-inflammatory Evaluation of Triazole Linked Semisynthetic Labdane Conjugates” (ACS Med Chem Lett, 2024)
Activity calls are given as the source filed them. The calls are words filed in the database; no cut-off is given here.

Assays:
RAW264.7 [1] = test: Antiinflammatory activity in LPS-induced mouse RAW264.7 cells assessed as inhibition of IL-6 production at 20 uM pretreated for 1 hr followed by LPS stimulation and measured after 24 hrs by ELISA; type: functional, cell-based; conditions: time 25.0 hrs
RAW264.7 [2] = test: Antiinflammatory activity in LPS-induced mouse RAW264.7 cells assessed as inhibition of TNF-alpha production at 20 uM pretreated for 1 hr followed by LPS stimulation and measured after 24 hrs by ELISA; type: functional, cell-based; conditions: time 25.0 hrs
RAW264.7 [3] = test: Cytotoxicity against mouse RAW264.7 cells assessed as reduction in cell viability at 1 to 20 uM incubated for 24 hrs by MTT assay; type: toxicity, cell-based; conditions: raw264.7, 24 h, dose 1-20 µM
RAW264.7 [4] = test: Antiinflammatory activity in LPS-induced mouse RAW264.7 cells assessed as inhibition of NO production at 1 to 20 uM pretreated for 1 hr followed by LPS stimulation and measured after 23 hrs by Griess method; type: functional, cell-based; conditions: dose 1-20 µM, time 24.0 hrs
RAW264.7 [5] = test: Inhibition of LPS-induced NF-kappaB activation in mouse RAW264.7 cells assessed as inhibition of p65 phosphorylation at 20 uM pretreated for 1 hr followed by LPS stimulation and measured after 24 hrs by Western blot analysis; type: cell-based; conditions: time 25.0 hrs
RAW264.7 [6] = test: Antiinflammatory activity in LPS-induced mouse RAW264.7 cells assessed as inhibition of NO production pretreated for 1 hr followed by LPS stimulation and measured after 23 hrs by Griess method; type: functional, cell-based

Row | SMILES | Activity (RAW264.7 [1]) | Activity (RAW264.7 [2]) | Activity (RAW264.7 [3]) | Activity (RAW264.7 [4]) | inhibition (RAW264.7 [5]) | IC50 (RAW264.7 [6]) [µM]
1 | C=C1CC[C@H]2C(C)(C)CCC[C@]2(C)[C@H]1C/C=C(/C=O)CC(=O)OCc1cn(CCCCN2C(=O)C(=O)c3cc(I)ccc32)nn1 | Active | Active | Non-Toxic | – | – | –
2 | C=C1CC[C@H]2C(C)(C)CCC[C@]2(C)[C@H]1C/C=C(\CC(=O)OCc1cn(CCN2C(=O)C(=O)c3cc(Br)ccc32)nn1)C(=O)OCc1cn(CCN2C(=O)C(=O)c3cc(Br)ccc32)nn1 | Active | Active | Non-Toxic | – | – | –
3 | C=C1CC[C@H]2C(C)(C)CCC[C@]2(C)[C@H]1C/C=C(/C=O)CC(=O)OCc1cn(CCCN2C(=O)C(=O)c3ccccc32)nn1 | Active | Active | Non-Toxic | inactive | – | –
4 | COc1ccc2c(c1)c(CC(=O)O)c(C)n2C(=O)c1ccc(Cl)cc1 [INDOMETHACIN] | – | – | – | – | Active | 7.31
5 | C=C1CC[C@H]2C(C)(C)CCC[C@]2(C)[C@H]1C/C=C(\CC(=O)O)C(=O)O | Active | Active | Non-Toxic | – | – | –
6 | C=C1CC[C@H]2C(C)(C)CCC[C@]2(C)[C@H]1C/C=C(/C=O)CC(=O)OCc1cn(CCCN2C(=O)C(=O)c3cc(C)ccc32)nn1 | Active | Active | Non-Toxic | – | – | –
7 | C=C1CC[C@H]2C(C)(C)CCC[C@]2(C)[C@H]1C/C=C(\CC(=O)OCc1cn(CCN2C(=O)C(=O)c3cc(F)ccc32)nn1)C(=O)OCc1cn(CCN2C(=O)C(=O)c3cc(F)ccc32)nn1 | Active | Active | Non-Toxic | – | – | –
8 | C=C1CC[C@H]2C(C)(C)CCC[C@]2(C)[C@H]1C/C=C(\CC(=O)OCc1cn(CCN2C(=O)C(=O)c3ccccc32)nn1)C(=O)OCc1cn(CCN2C(=O)C(=O)c3ccccc32)nn1 | Active | Active | Non-Toxic | Active | – | –
9 | C=C1CC[C@H]2C(C)(C)CCC[C@]2(C)[C@H]1C/C=C(/C=O)CC(=O)OCc1cn(CCCCN2C(=O)C(=O)c3cc(OC)ccc32)nn1 | Active | Active | Non-Toxic | – | – | –
10 | C=C1CC[C@H]2C(C)(C)CCC[C@]2(C)[C@H]1C/C=C(/C=O)CC(=O)OCc1cn(CCCN2C(=O)C(=O)c3cc(Br)ccc32)nn1 | Active | Active | Non-Toxic | – | – | –
11 | C=C1CC[C@H]2C(C)(C)CCC[C@]2(C)[C@H]1C/C=C(/C=O)CC(=O)OCc1cn(CCCCN2C(=O)C(=O)c3cc(Cl)ccc32)nn1 | Active | Active | Non-Toxic | – | – | –
12 | C=C1CC[C@H]2C(C)(C)CCC[C@]2(C)[C@H]1C/C=C(/C=O)CC(=O)OCc1cn(CCN2C(=O)C(=O)c3cc(OC(F)(F)F)ccc32)nn1 | Active | Active | Non-Toxic | Active | – | –
13 | C=C1CC[C@H]2C(C)(C)CCC[C@]2(C)[C@H]1C/C=C(/C=O)CC(=O)OCc1cn(CCN2C(=O)C(=O)c3cc(Cl)ccc32)nn1 | Active | Active | Non-Toxic | inactive | – | –
14 | C=C1CC[C@H]2C(C)(C)CCC[C@]2(C)[C@H]1C/C=C(/C=O)CC(=O)OCc1cn(CCCN2C(=O)C(=O)c3cc(OC(F)(F)F)ccc32)nn1 | Active | Active | Non-Toxic | – | – | –
15 | C=C1CC[C@H]2C(C)(C)CCC[C@]2(C)[C@H]1C/C=C(/C=O)CC(=O)OCc1cn(CCCN2C(=O)C(=O)c3cc(Cl)ccc32)nn1 | Active | Active | Non-Toxic | – | – | –
16 | C=C1CC[C@H]2C(C)(C)CCC[C@]2(C)[C@H]1C/C=C(\CC(=O)OCc1cn(CCN2C(=O)C(=O)c3cc(Cl)ccc32)nn1)C(=O)OCc1cn(CCN2C(=O)C(=O)c3cc(Cl)ccc32)nn1 | Active | Active | Non-Toxic | – | – | –
17 | C=C1CC[C@H]2C(C)(C)CCC[C@]2(C)[C@H]1C/C=C(/C=O)CC=O | Active | Active | Non-Toxic | – | – | –
18 | C=C1CC[C@H]2C(C)(C)CCC[C@]2(C)[C@H]1C/C=C(/C=O)CC(=O)OCc1cn(CCN2C(=O)C(=O)c3cc(OC)ccc32)nn1 | Active | Active | Non-Toxic | – | – | –

Row | SMILES | Activity (RAW264.7 [1]) | Activity (RAW264.7 [2]) | Activity (RAW264.7 [3]) | Activity (RAW264.7 [4]) | inhibition (RAW264.7 [5]) | IC50 (RAW264.7 [6]) [µM]
19 | C=C1CC[C@H]2C(C)(C)CCC[C@]2(C)[C@H]1C/C=C(\CC(=O)OCc1cn(CCCN2C(=O)C(=O)c3cc(Cl)ccc32)nn1)C(=O)OCc1cn(CCCN2C(=O)C(=O)c3cc(Cl)ccc32)nn1 | Active | Active | Non-Toxic | – | – | –
20 | C=C1CC[C@H]2C(C)(C)CCC[C@]2(C)[C@H]1C/C=C(/C=O)CC(=O)OCc1cn(CCN2C(=O)C(=O)c3cc(F)ccc32)nn1 | Active | Active | Non-Toxic | inactive | – | –
21 | C=C1CC[C@H]2C(C)(C)CCC[C@]2(C)[C@H]1C/C=C(/C=O)CC(=O)OCc1cn(CCN2C(=O)C(=O)c3cc(C)ccc32)nn1 | Active | Active | Non-Toxic | – | – | –
22 | C=C1CC[C@H]2C(C)(C)CCC[C@]2(C)[C@H]1C/C=C(/C=O)CC(=O)OCc1cn(CCCCN2C(=O)C(=O)c3cc(F)ccc32)nn1 | Active | Active | Non-Toxic | – | – | –
23 | C=C1CC[C@H]2C(C)(C)CCC[C@]2(C)[C@H]1C/C=C(\CC(=O)OCc1cn(CCCN2C(=O)C(=O)c3cc(OC)ccc32)nn1)C(=O)OCc1cn(CCCN2C(=O)C(=O)c3cc(OC)ccc32)nn1 | Active | Active | Non-Toxic | – | – | –
24 | C=C1CC[C@H]2C(C)(C)CCC[C@]2(C)[C@H]1C/C=C(/C=O)CC(=O)OCc1cn(CCCCN2C(=O)C(=O)c3cc(C)ccc32)nn1 | Active | Active | Non-Toxic | Active | – | –
25 | C=C1CC[C@H]2C(C)(C)CCC[C@]2(C)[C@H]1C/C=C(/C=O)CC(=O)OCc1cn(CCCN2C(=O)C(=O)c3cc(I)ccc32)nn1 | Active | Active | Non-Toxic | – | – | –
26 | C=C1CC[C@H]2C(C)(C)CCC[C@]2(C)[C@H]1C/C=C(\CC(=O)OCc1cn(CCN2C(=O)C(=O)c3cc(I)ccc32)nn1)C(=O)OCc1cn(CCN2C(=O)C(=O)c3cc(I)ccc32)nn1 | Active | Active | Non-Toxic | – | – | –
27 | C=C1CC[C@H]2C(C)(C)CCC[C@]2(C)[C@H]1C/C=C(/C=O)CC(=O)OCc1cn(CCCN2C(=O)C(=O)c3cc(F)ccc32)nn1 | Active | Active | Non-Toxic | Active | – | –
28 | C=C1CC[C@H]2C(C)(C)CCC[C@]2(C)[C@H]1C/C=C(/C=O)CC(=O)OCc1cn(CCCN2C(=O)C(=O)c3cc(OC)ccc32)nn1 | Active | Active | Non-Toxic | – | – | –
29 | C=C1CC[C@H]2C(C)(C)CCC[C@]2(C)[C@H]1C/C=C(/C=O)CC(=O)OCc1cn(CCCCN2C(=O)C(=O)c3cc(Br)ccc32)nn1 | Active | Active | Non-Toxic | – | – | –
30 | C=C1CC[C@H]2C(C)(C)CCC[C@]2(C)[C@H]1C/C=C(/C=O)CC(=O)OCc1cn(CCN2C(=O)C(=O)c3cc(I)ccc32)nn1 | Active | Active | Non-Toxic | inactive | – | –
31 | C=C1CC[C@H]2C(C)(C)CCC[C@]2(C)[C@H]1C/C=C(/C=O)CC(=O)OCc1cn(CCCCN2C(=O)C(=O)c3cc(OC(F)(F)F)ccc32)nn1 | Active | Active | Non-Toxic | – | – | –
32 | C=C1CC[C@H]2C(C)(C)CCC[C@]2(C)[C@H]1C/C=C(\CC(=O)OCc1cn(CCN2C(=O)C(=O)c3cc(OC)ccc32)nn1)C(=O)OCc1cn(CCN2C(=O)C(=O)c3cc(OC)ccc32)nn1 | Active | Active | Non-Toxic | – | – | –
33 | C=C1CC[C@H]2C(C)(C)CCC[C@]2(C)[C@H]1C/C=C(\CC(=O)OCc1cn(CCN2C(=O)C(=O)c3cc(C)ccc32)nn1)C(=O)OCc1cn(CCN2C(=O)C(=O)c3cc(C)ccc32)nn1 | Active | Active | Non-Toxic | – | – | –
34 | C=C1CC[C@H]2C(C)(C)CCC[C@]2(C)[C@H]1C/C=C(/C=O)CC(=O)OCc1cn(CCN2C(=O)C(=O)c3cc(Br)ccc32)nn1 | Active | Active | Non-Toxic | inactive | – | –
35 | C=C1CC[C@H]2C(C)(C)CCC[C@]2(C)[C@H]1C/C=C(/C=O)CC(=O)OCc1cn(CCCCN2C(=O)C(=O)c3ccccc32)nn1 | Active | Active | Non-Toxic | inactive | – | –
